# Target: T1, human GLP-1 receptor (Homo sapiens, UniProt P43220)
# T1 construct: expressed in transfected cells
# Assay: GLP-1R cAMP assay (cAMP accumulation in CHO cells stably overexpressing the human GLP-1 receptor, HitHunter kit)
# Assay type: cell-based
# Details: CHO cells stably overexpressing human GLP-1R, 30 min, 20-point dose response in triplicate
# In short: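 CHO cells stably expressing the human receptor (10,000/well) in HBSS with 10 mM HEPES and 625 μM IBMX, given compound as a 20-point dose response in triplicate for 30 min. cAMP was read by luminescent enzyme-complementation detection after overnight incubation, and EC50 was fitted from dose-response curves.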
# T1 sequence (P43220 24-463): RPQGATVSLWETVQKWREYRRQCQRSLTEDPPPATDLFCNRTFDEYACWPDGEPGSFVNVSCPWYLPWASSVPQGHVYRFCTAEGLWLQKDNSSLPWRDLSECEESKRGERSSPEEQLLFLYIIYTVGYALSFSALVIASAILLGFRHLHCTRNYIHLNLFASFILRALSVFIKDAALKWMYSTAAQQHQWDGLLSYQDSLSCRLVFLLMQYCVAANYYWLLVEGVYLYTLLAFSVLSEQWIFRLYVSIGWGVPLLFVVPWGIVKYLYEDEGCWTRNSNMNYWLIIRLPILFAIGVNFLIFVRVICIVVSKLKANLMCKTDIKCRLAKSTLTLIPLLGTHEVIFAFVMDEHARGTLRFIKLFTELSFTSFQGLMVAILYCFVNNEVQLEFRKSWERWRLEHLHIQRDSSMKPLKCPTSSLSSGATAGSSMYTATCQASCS
row,Structure (SMILES),EC50
1,"C[C@H]1C[C@@H](Oc2ccnc(COc3ccc(C#N)cn3)n2)CCN1Cc1nc2ccc(C(=O)O)cc2n1C[C@@H]1CCO1 [Compound 567, 2-{[(2S,4S)-4-[(2-{[(5-Cyanopyridin-2-yl)oxy]methyl}pyrimidin-4-yl)oxy]-2-methylpiperidin-1-yl]methyl}-1-{[(2S)-oxetan-2-yl]methyl}-1H-1,3-benzodiazole-6-carboxylic acid]",0.1 to 1 nM
2,"C[C@H]1C[C@@H](Oc2ccnc(COc3ccc(F)cc3F)n2)CCN1Cc1nc2ccc(C(=O)O)cc2n1CC1CCC1 [Compound 590, 1-(Cyclobutylmethyl)-2-{[(2S,4S)-4-({2-[(2,4-difluorophenoxy)methyl]pyrimidin-4-yl}oxy)-2-methylpiperidin-1-yl]methyl}-1H-1,3-benzodiazole-6-carboxylic acid]",0.1 to 1 nM
3,"N#Cc1ccc(OCc2nccc(O[C@H]3CC[C@H](Cc4nc5ccc(C(=O)O)cc5n4C[C@@H]4CCO4)CC3)n2)c(F)c1 [Compound 640, 1-{[(2S)-oxetan-2-yl]methyl}-2-{[(1r,4r)-4-({2-[(4-cyano-2-fluorophenoxy)methyl]pyrimidin-4-yl}oxy)cyclohexyl]methyl}-1H-1,3-benzodiazole-6-carboxylic acid]",< 0.1 nM
4,"C[C@H]1C[C@@H](Oc2ccnc(COc3ccc(F)cc3F)n2)CCN1Cc1nc2ccccc2n1C[C@@H]1CCO1 [Compound 633, 2-(((2S,4S)-4-((2-((2,4-Difluorophenoxy)methyl)pyrimidin-4-yl)oxy)-2-methylpiperidin-1-yl)methyl)-1-(((S)-oxetan-2-yl)methyl)-1H-benzo[d]imidazole]",10 to 100 nM
5,"C[C@H]1C[C@@H](Oc2ccnc(COc3ccc(C#N)cc3F)n2)CCN1Cc1nc2ccc(C(=O)O)cc2n1CCOCC(F)(F)F [Compound 596, 2-{[(2S,4S)-4-({2-[(4-Cyano-2-fluorophenoxy)methyl]pyrimidin-4-yl}oxy)-2-methylpiperidin-1-yl]methyl}-1-[2-(2,2,2-trifluoroethoxy)ethyl]-1H-1,3-benzodiazole-6-carboxylic acid]",< 0.1 nM
6,"O=C(O)c1cc(F)c2nc(CN3CCC(Oc4ccnc(COc5ncc(Cl)cc5F)n4)CC3)n(C[C@@H]3CCO3)c2c1 [Compound 605, 2-({4-[(2-{[(5-Chloro-3-fluoropyridin-2-yl)oxy]methyl}pyrimidin-4-yl)oxy]piperidin-1-yl}methyl)-4-fluoro-1-{[(2S)-oxetan-2-yl]methyl}-1H-1,3-benzodiazole-6-carboxylic acid]",< 0.1 nM
7,"C[C@H]1C[C@@H](Oc2ccnc(COc3ccc(F)cc3F)n2)CCN1Cc1nc2ccc(CC(=O)O)cc2n1C[C@@H]1CCO1 [Compound 637, 2-(2-(((2S,4S)-4-((2-((2,4-difluorophenoxy)methyl)pyrimidin-4-yl)oxy)-2-methylpiperidin-1-yl)methyl)-1-(((S)-oxetan-2-yl)methyl)-1H-benzo[d]imidazol-6-yl) acetic acid]",1 to 10 nM
8,"C[C@H]1C[C@@H](Oc2ccnc(COc3ncc(F)cc3C#N)n2)CCN1Cc1nc2ccc(C(=O)O)cc2n1C[C@@H]1CCO1 [Compound 630, 2-(((2S,4S)-4-((2-(((3-Cyano-5-fluoropyridin-2-yl)oxy)methyl)pyrimidin-4-yl)oxy)-2-methylpiperidin-1-yl)methyl)-1-(((S)-oxetan-2-yl)methyl)-1H-benzo[d]imidazole-6-carboxylic acid]",0.1 to 1 nM
9,"N#Cc1ccc(OCc2nccc(O[C@H]3CCN(Cc4nc5ccc(C(=O)O)cc5n4C[C@@H]4CCO4)C[C@@H]3F)n2)c(F)c1 [Compound 553, 2-{[(3S,4S)-4-({2-[(4-cyano-2-fluorophenoxy)methyl]pyrimidin-4-yl}oxy)-3-fluoropiperidin-1-yl]methyl}-1-{[(2S)-oxetan-2-yl]methyl}-1H-1,3-benzodiazole-6-carboxylic acid]",0.1 to 1 nM
10,"C[C@H]1C[C@@H](Oc2ccnc(COc3ccc(F)cc3C#N)n2)CCN1Cc1nc2ccc(C(=O)O)c(F)c2n1C[C@@H]1CCO1 [Compound 573, 2-{[(2S,4S)-4-({2-[(2-cyano-4-fluorophenoxy)methyl]pyrimidin-4-yl}oxy)-2-methylpiperidin-1-yl]methyl}-7-fluoro-1-{[(2S)-oxetan-2-yl]methyl}-1H-1,3-benzodiazole-6-carboxylic acid]",< 0.1 nM
11,"C[C@H]1C[C@@H](Oc2ccnc(COc3ccc(Cl)cn3)n2)CCN1Cc1nc2c(F)cc(C(=O)O)cc2n1C[C@@H]1CCO1 [Compound 603, 2-{[(2S,4S)-4-[(2-{[(5-Chloropyridin-2-yl)oxy]methyl}pyrimidin-4-yl)oxy]-2-methylpiperidin-1-yl]methyl}-4-fluoro-1-{[(2S)-oxetan-2-yl]methyl}-1H-1,3-benzodiazole-6-carboxylic acid]",< 0.1 nM
12,"C[C@H]1C[C@@H](Oc2ccnc(COc3ccc(F)cc3F)n2)CCN1Cc1nc2ccc(C(=O)O)cc2n1C[C@H]1CCOC1 [Compound 575, 2-{[(2S,4S)-4-({2-[(2,4-Difluorophenoxy)methyl]pyrimidin-4-yl}oxy)-2-methylpiperidin-1-yl]methyl}-1-{[(3R)-oxolan-3-yl]methyl}-1H-1,3-benzodiazole-6-carboxylic acid]",0.1 to 1 nM
13,"C[C@H]1C[C@@H](Oc2ccnc(COc3ccc(C#N)cc3F)n2)CCN1Cc1nc2ccc(C(=O)O)cc2n1C[C@@H]1CCOC1 [Compound 578, 2-{[(2S,4S)-4-({2-[(4-cyano-2-fluorophenoxy)methyl]pyrimidin-4-yl}oxy)-2-methylpiperidin-1-yl]methyl}-1-{[(3S)-oxolan-3-yl]methyl}-1H-1,3-benzodiazole-6-carboxylic acid]",0.1 to 1 nM
14,"N#Cc1ccc(OCc2nccc(O[C@H]3CC[C@@H](Cc4nc5ccc(C(=O)O)cc5n4C[C@@H]4CCO4)CC3)n2)c(F)c1 [Compound 641, 1-{[(2S)-oxetan-2-yl]methyl}-2-{[(1s,4s)-4-({2-[(4-cyano-2-fluorophenoxy)methyl]pyrimidin-4-yl}oxy)cyclohcxyl]methyl}-1H-1,3-benzodiazole-6-carboxylic acid]",100 to 500 nM
15,"C[C@H]1C[C@@H](Oc2ccnc(COc3ccc(F)cc3F)n2)CCN1Cc1nc2ccc(C(=O)O)cc2n1C[C@@H]1CCS1(=O)=O [Compound 611, 2-(((2S,4S)-4-((2-((2,4-difluorophenoxy)methyl)pyrimidin-4-yl)oxy)-2-methylpiperidin-1-yl)methyl)-1-(((S)-1,1-dioxidothietan-2-yl)methyl)-1H-benzo[d]imidazole-6-carboxylic acid]",0.1 to 1 nM
16,"CC[C@H]1C[C@@H](Oc2ccnc(COc3ncc(Cl)cc3F)n2)CCN1Cc1nc2ccc(C(=O)O)cc2n1C[C@@H]1CCO1 [Compound 608, 2-{[(2S,4S)-4-[(2-{[(5-Chloro-3-fluoropyridin-2-yl)oxy]methyl}pyrimidin-4-yl)oxy]-2-ethylpiperidin-1-yl]methyl}-1-[(oxetan-2-yl)methyl]-1H-1,3-benzodiazole-6-carboxylic acid]",0.1 to 1 nM
17,"C[C@H]1C[C@@H](Oc2ccnc(COc3ccc(F)cc3F)n2)CCN1Cc1nc2ccc(C(=O)O)cc2n1C[C@@H]1CCOC1 [Compound 584, 2-{[(2S,4S)-4-({2-[(2,4-Difluorophenoxy)methyl]pyrimidin-4-yl}oxy)-2-methylpiperidin-1-yl]methyl}-1-{[(3S)-oxolan-3-yl]methyl}-1H-1,3-benzodiazole-6-carboxylic acid]",0.1 to 1 nM

# Reference: US20260317309A1, “N-HETEROCYLIC GPCR RECEPTOR AGONISTS, PHARMACEUTICAL COMPOSITIONS COMPRISING THE SAME, AND METHODS FOR THEIR USE” (Carmot Therapeutics, Inc., priority 2022, published 2026)
